Measurements taken from patent US20230123334A1, “AMINO LIPID COMPOUND, PREPARATION METHOD THEREFOR, AND APPLICATION THEREOF” (SHENZHEN SHENXIN BIOTECHNOLOGY CO., LTD., priority 2020, published 2023).

Columns and labels:
[1] = tested on: HEK293 cells; test: Preliminary screening as DNA vectors, GFP transfection of HEK293 cells; type: cell-based; conditions: HEK293 cells; lipid/DOPE liposome with 75 ng plasmid DNA (psin-EGFP-IRES-Puro); number of cells expressing GFP divided by total number of nuclei (Hoechst)
In short: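 HEK293 cells in DMEM/10% FBS transfected with 75 ng EGFP plasmid per well complexed with amino lipid/DOPE liposomes in pH 5.6 sodium acetate. Hoechst nuclear stain added 20-24 h post-transfection, then cells cultured another 20-24 h. Confocal imaging gives GFP-positive cells as % of total nuclei.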

[2] = tested on: HEK293 cells; test: Preliminary screening as mRNA vectors, EGFP mRNA transfection of HEK293 cells; type: cell-based; conditions: HEK293 cells, 96-well plates, EGFP mRNA 50 ng per well; percentage of GFP fluorescent cells relative to total number of cells (Hoechst)
In short: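 HEK293 cells in DMEM plus 10% FBS transfected in 96-well format with 50 ng EGFP mRNA per well; Lipofectamine2000 served as positive control. Read-out is the percentage of GFP-fluorescent cells among total cells, counted by Hoechst nuclear stain.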

| SMILES | Absolute DNA transfection efficiency in HEK293 cells [1] [%] | Absolute mRNA transfection efficiency in HEK293 cells [2] [%] |
| --- | --- | --- |
| CCCCCCCNc1nc(NCCCCCCC)nc(NCCN2CCOCC2)n1 [Compound N7N7D2] | 0.0 | 0.0 |
| CCCCCCCNc1nc(NCCCCCCC)nc(NCCN2CCCC2)n1 [Compound N7N7D3] | 0.0 | 0.0 |
| CCCCCCCNc1nc(NCCCCCCC)nc(NCCN2CCCCC2)n1 [Compound N7N7D4] | 0.0 | 0.0 |
| CCCCCCCNc1nc(NCCCCCCC)nc(NCCN2CCN(C)CC2)n1 [Compound N7N7D5] | 0.0 | 0.5 |
| CCCCCCCNc1nc(NCCCCCCC)nc(NCCCN(C)C)n1 [Compound N7N7D6] | 0.0 | 0.0 |
| CCCCCCCNc1nc(NCCCCCCC)nc(NCCN(CC)CC)n1 [Compound N7N7D7] | 0.0 | 0.0 |
| CCCCCCCNc1nc(NCCCCCCC)nc(NCCCN2CCOCC2)n1 [Compound N7N7D8] | 0.0 | 0.0 |
| CCCCCCCNc1nc(NCCCCCCC)nc(NCCCN2CCN(C)CC2)n1 [Compound N7N7D9] | 0.0 | 0.0 |
| CCCCCCCNc1nc(NCCCCCCC)nc(NCC2CCN(C)CC2)n1 [Compound N7N7D10] | 0.1 | 0.0 |
| CCCCCCCCNc1nc(NCCCCCCC)nc(NCCN(C)C)n1 [Compound N7N8D1] | 0.2 | 0.0 |
| CCCCCCCCNc1nc(NCCCCCCC)nc(NCCN2CCOCC2)n1 [Compound N7N8D2] | 0.0 | 0.3 |
| CCCCCCCCNc1nc(NCCCCCCC)nc(NCCN2CCCC2)n1 [Compound N7N8D3] | 0.5 | 3.7 |
| CCCCCCCCNc1nc(NCCCCCCC)nc(NCCN2CCCCC2)n1 [Compound N7N8D4] | 0.2 | 0.0 |
| CCCCCCCCNc1nc(NCCCCCCC)nc(NCCN2CCN(C)CC2)n1 [Compound N7N8D5] | 0.0 | 0.0 |
| CCCCCCCCNc1nc(NCCCCCCC)nc(NCCCN(C)C)n1 [Compound N7N8D6] | 0.0 | 0.0 |
| CCCCCCCCNc1nc(NCCCCCCC)nc(NCCN(CC)CC)n1 [Compound N7N8D7] | 0.0 | 0.0 |
| CCCCCCCCNc1nc(NCCCCCCC)nc(NCCCN2CCOCC2)n1 [Compound N7N8D8] | 0.0 | 0.0 |
| CCCCCCCCNc1nc(NCCCCCCC)nc(NCCCN2CCN(C)CC2)n1 [Compound N7N8D9] | 0.7 | 0.2 |
| CCCCCCCCNc1nc(NCCCCCCC)nc(NCC2CCN(C)CC2)n1 [Compound N7N8D10] | 0.0 | 0.6 |
| CCCCCCCCCNc1nc(NCCCCCCC)nc(NCCN(C)C)n1 [Compound N7N9D1] | 0.6 | 0.0 |

| SMILES | Absolute DNA transfection efficiency in HEK293 cells [1] [%] | Absolute mRNA transfection efficiency in HEK293 cells [2] [%] |
| --- | --- | --- |
| CCCCCCCCCNc1nc(NCCCCCCC)nc(NCCN2CCOCC2)n1 [Compound N7N9D2] | 0.0 | 0.0 |
| CCCCCCCCCNc1nc(NCCCCCCC)nc(NCCN2CCCC2)n1 [Compound N7N9D3] | 0.0 | 0.1 |
| CCCCCCCCCNc1nc(NCCCCCCC)nc(NCCN2CCCCC2)n1 [Compound N7N9D4] | 0.0 | 0.0 |
| CCCCCCCCCNc1nc(NCCCCCCC)nc(NCCN2CCN(C)CC2)n1 [Compound N7N9D5] | 0.0 | 0.2 |
| CCCCCCCCCNc1nc(NCCCCCCC)nc(NCCCN(C)C)n1 [Compound N7N9D6] | 0.0 | 0.0 |
| CCCCCCCCCNc1nc(NCCCCCCC)nc(NCCN(CC)CC)n1 [Compound N7N9D7] | 0.0 | 0.0 |
| CCCCCCCCCNc1nc(NCCCCCCC)nc(NCCCN2CCOCC2)n1 [Compound N7N9D8] | 0.0 | 0.0 |
| CCCCCCCCCNc1nc(NCCCCCCC)nc(NCCCN2CCN(C)CC2)n1 [Compound N7N9D9] | 0.7 | 0.0 |
| CCCCCCCCCNc1nc(NCCCCCCC)nc(NCC2CCN(C)CC2)n1 [Compound N7N9D10] | 0.4 | 0.1 |
| CCCCCCCCCCCNc1nc(NCCCCCCC)nc(NCCN(C)C)n1 [Compound N7N11D1] | 1.3 | 0.0 |
| CCCCCCCCCCCNc1nc(NCCCCCCC)nc(NCCN2CCOCC2)n1 [Compound N7N11D2] | 0.1 | 0.0 |
| CCCCCCCCCCCNc1nc(NCCCCCCC)nc(NCCN2CCCC2)n1 [Compound N7N11D3] | 1.0 | 1.3 |
| CCCCCCCCCCCNc1nc(NCCCCCCC)nc(NCCN2CCCCC2)n1 [Compound N7N11D4] | 1.4 | 0.1 |
| CCCCCCCCCCCNc1nc(NCCCCCCC)nc(NCCN2CCN(C)CC2)n1 [Compound N7N11D5] | 0.6 | 0.1 |
| CCCCCCCCCCCNc1nc(NCCCCCCC)nc(NCCCN(C)C)n1 [Compound N7N11D6] | 1.1 | 1.5 |
| CCCCCCCCCCCNc1nc(NCCCCCCC)nc(NCCN(CC)CC)n1 [Compound N7N11D7] | 0.0 | 0.0 |
| CCCCCCCCCCCNc1nc(NCCCCCCC)nc(NCCCN2CCOCC2)n1 [Compound N7N11D8] | 0.0 | 0.0 |
| CCCCCCCCCCCNc1nc(NCCCCCCC)nc(NCCCN2CCN(C)CC2)n1 [Compound N7N11D9] | 0.1 | 0.0 |
| CCCCCCCCCCCNc1nc(NCCCCCCC)nc(NCC2CCN(C)CC2)n1 [Compound N7N11D10] | 0.7 | 0.2 |
| CCCCCCCCCCCCNc1nc(NCCCCCCC)nc(NCCN(C)C)n1 [Compound N7N12D1] | 0.2 | 0.1 |
